One may read the IC50 as the midpoint of a concentration-inhibition curve.

The values below come from US20230365584A1, “HETEROCYCLIC PERICONDENSED CDC7 KINASE INHIBITORS FOR THE TREATMENT OF CANCER” (SCHRÖDINGER, INC., priority 2020, published 2023).

SMILES strings stand for the structures. Counter-ions that a name gives are not always drawn.

Sequence of Full length human CDC7 protein co-expressed with DBF4 (O00311 whole entry): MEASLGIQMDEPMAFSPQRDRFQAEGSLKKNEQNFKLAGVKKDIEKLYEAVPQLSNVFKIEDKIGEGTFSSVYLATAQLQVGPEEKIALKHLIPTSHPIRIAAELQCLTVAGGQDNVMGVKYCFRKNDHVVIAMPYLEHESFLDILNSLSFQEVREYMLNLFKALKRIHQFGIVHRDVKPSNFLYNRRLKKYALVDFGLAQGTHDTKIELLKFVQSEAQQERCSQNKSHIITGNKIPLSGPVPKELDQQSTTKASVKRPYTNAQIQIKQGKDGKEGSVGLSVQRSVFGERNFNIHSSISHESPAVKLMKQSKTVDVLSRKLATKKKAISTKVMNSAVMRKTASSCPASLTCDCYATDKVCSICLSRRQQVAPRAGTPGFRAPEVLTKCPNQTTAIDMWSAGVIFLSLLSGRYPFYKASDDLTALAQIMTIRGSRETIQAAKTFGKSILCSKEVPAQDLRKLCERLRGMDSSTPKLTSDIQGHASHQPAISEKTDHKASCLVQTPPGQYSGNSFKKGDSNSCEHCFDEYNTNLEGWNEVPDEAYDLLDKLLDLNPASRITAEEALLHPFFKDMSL
Sequence of Full length human CDC7 protein co-expressed with DBF4 (Q9UBU7 whole entry partner): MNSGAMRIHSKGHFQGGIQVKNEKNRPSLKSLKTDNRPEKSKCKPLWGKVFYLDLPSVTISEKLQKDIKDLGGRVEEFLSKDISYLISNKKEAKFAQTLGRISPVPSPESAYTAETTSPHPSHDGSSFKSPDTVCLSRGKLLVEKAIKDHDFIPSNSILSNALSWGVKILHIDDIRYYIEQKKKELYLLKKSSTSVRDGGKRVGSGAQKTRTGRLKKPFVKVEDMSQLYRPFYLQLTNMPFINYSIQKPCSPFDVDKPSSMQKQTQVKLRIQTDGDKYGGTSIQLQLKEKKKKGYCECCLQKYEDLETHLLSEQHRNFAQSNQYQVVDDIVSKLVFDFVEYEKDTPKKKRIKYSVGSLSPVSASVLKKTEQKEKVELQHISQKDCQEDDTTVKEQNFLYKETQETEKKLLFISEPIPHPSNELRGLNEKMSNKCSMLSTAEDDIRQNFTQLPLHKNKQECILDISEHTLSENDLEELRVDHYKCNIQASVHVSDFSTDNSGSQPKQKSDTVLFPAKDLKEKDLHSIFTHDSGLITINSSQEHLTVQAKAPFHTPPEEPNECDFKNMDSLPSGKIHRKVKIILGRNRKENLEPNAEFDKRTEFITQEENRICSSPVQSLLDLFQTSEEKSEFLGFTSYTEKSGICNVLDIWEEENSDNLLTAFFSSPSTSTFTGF

In the assay the target is Full length human CDC7 protein co-expressed with DBF4 (Homo sapiens (Human), UniProt O00311). In words: CDC7 kinase biochemical assay (ADP-Glo, PDKtide substrate). To be noted: 0.1 nM CDC7/DBF4, 1 uM ATP, 10 uM PDKtide, 4 h. As for the experimental part:
CDC7 Kinase Biochemical Assay Protocol:
Full length human CDC7 protein co-expressed with DBF4 was purchased from SignalChem (China). CDC7 kinase activity was determined with PDKtide (SignalChem) as a substrate and by measuring ADP production using the ADP-Glo™ Kinase Assay kit (Promega) following the manufacturers instructions. The kinase reaction was performed using the following conditions: Buffer: 40 mM Tris pH 7.5, 20 mM MgCl2, 0.1 mg/ml BSA and 50 uM DTT. Final reaction mix contained 0.1 nM CDC7/DBF4, 1 uM ATP and 10 uM PDKtide. The kinase reaction time was 4 h. The ADP-Glo signal was measured using an EnVision plate reader (PerkinELmer).
Percent inhibition of CDC7 kinase activity was calculated based on the following formula:
[formula] • Ssample: the signal of compounds • SHigh Ctrl: the signal of high control (DMSO) • SLow Ctrl: the signal of low control (positive control CDC7 inhibitor)
In the case of `C[C@H]1Cc2c(CN3CC(O)C3)[nH]c(=O)c3sc(-c4cn[nH]c4)c(c23)O1` (single isomer, unassigned) [Example 79], the half-maximal inhibitory concentration (IC50) was < 1 nM.

The compound `COC[C@H](c1[nH]c(=O)c2sc(-c3cn[nH]c3)c3c2c1CCCO3)N1CCC(F)(F)C1` (single isomer, unassigned) [Example 37] showed an IC50 of 1 to 10 nM.

`C[C@H](c1[nH]c(=O)c2sc(-c3cn[nH]c3)c3c2c1CCCO3)n1cc(C#N)cn1` (single isomer, unassigned) [Example 27]: the IC50 was < 1 nM.

In the case of `C[C@H](c1[nH]c(=O)c2sc(-c3cn[nH]c3)c3c2c1CCCO3)n1ccnn1` (single isomer, unassigned) [Example 49], the half-inhibitory concentration (IC50) was < 1 nM.

As for `C[C@H]1Cc2c(C(C)(C)O)[nH]c(=O)c3sc(-c4cn[nH]c4)c(c23)O1` (single isomer, unassigned) [Example 61], the half-maximal inhibitory concentration (IC50) is < 1 nM.

Turning to `C[C@@H](c1[nH]c(=O)c2sc(-c3cn[nH]c3)c3c2c1CCCO3)n1ccnn1` (single isomer, unassigned) [Example 50], the IC50 is < 1 nM.

Take `Cc1n[nH]cc1-c1sc2c(=O)[nH]c(C)c3c2c1OCC3` [Example 4, 6-methyl-2-(3-methyl-1H-pyrazol-4-yl)-5,7-dihydro-3-oxa-1-thia-7-azaacenaphthylen-8(4H)-one]: the IC50 was < 1 nM.

Take `Cc1n[nH]cc1-c1sc2c(=O)[nH]c(C)c3c2c1OCCC3` [Example 6, 5-methyl-1-(3-methyl-1H-pyrazol-4-yl)-4,6,7,8-tetrahydro-3H-9-oxa-2-thia-4-azabenzo[cd]azulen-3-one]: the half-inhibitory concentration (IC50) lay in the range of 1 to 10 nM.

On to `Cc1[nH]c(=O)c2sc(-c3cn[nH]c3)c3c2c1CC(C)O3` (stereo not shown) [Example 9, 4,6-dimethyl-2-(1H-pyrazol-4-yl)-5,7-dihydro-3-oxa-1-thia-7-azaacenaphthylen-8(4H)-one], for which the IC50 is < 1 nM.

Consider `CC(=O)N(C)c1[nH]c(=O)c2sc(-c3cn[nH]c3)c3c2c1CCCO3` [Example 56, N-methyl-N-(3-oxo-1-(1H-pyrazol-4-yl)-4,6,7,8-tetrahydro-3H-9-oxa-2-thia-4-azabenzo[cd]azulen-5-yl)acetamide], for which the IC50 is < 1 nM.

Consider `COC[C@H](c1[nH]c(=O)c2sc(-c3cn[nH]c3)c3c2c1CCCO3)n1cccn1` (single isomer, unassigned) [Example 35], for which the IC50 was < 1 nM.

For the compound `NCc1[nH]c(=O)c2sc(-c3cn[nH]c3)c3c2c1CCCO3` [Example 17, 7-(aminomethyl)-2-(1H-pyrazol-4-yl)-12-oxa-3-thia-6-azatricyclo[6.4.1.04,13]trideca-1,4(13),7-trien-5-one], the IC50 lay within 1 to 10 nM.

In the case of `C[C@H]1Cc2c(CN3CCC3)[nH]c(=O)c3sc(-c4cn[nH]c4)c(c23)O1` (single isomer, unassigned) [Example 63], the IC50 is < 1 nM.

Turning to `Cc1[nH]c(=O)c2sc(-c3cn[nH]c3)c3c2c1CC(F)(F)CO3` [Example 43, 10,10-difluoro-7-methyl-2-(1H-pyrazol-4-yl)-12-oxa-3-thia-6-azatricyclo[6.4.1.0^4,13]trideca-1,4(13),7-trien-5-one], the IC50 was < 1 nM.

For `C[C@@](O)(c1[nH]c(=O)c2sc(-c3cn[nH]c3)c3c2c1CCCO3)C1CC1` (single isomer, unassigned) [Example 59], the IC50 was < 1 nM.

Regarding `O=c1[nH]c(CN2CCC2)c2c3c(c(-c4ccncc4)sc13)OCCC2` [Example 12, 5-(azetidin-1-ylmethyl)-1-(pyridin-4-yl)-4,6,7,8-tetrahydro-3H-9-oxa-2-thia-4-azabenzo[cd]azulen-3-one], the half-maximal inhibitory concentration (IC50) is < 1 nM.

In the case of `C[C@@H](c1[nH]c(=O)c2sc(-c3cn[nH]c3)c3c2c1CCCO3)n1cc(C#N)cn1` (single isomer, unassigned) [Example 26], the half-inhibitory concentration (IC50) is < 1 nM.

On to `Cc1n[nH]cc1-c1sc2c(=O)[nH]c(Cn3cccn3)c3c2c1OCCC3` [Example 20, 2-(3-methyl-1H-pyrazol-4-yl)-7-(pyrazol-1-ylmethyl)-12-oxa-3-thia-6-azatricyclo[6.4.1.0^4,13]trideca-1,4(13),7-trien-5-one], for which the IC50 was < 1 nM.

`O=c1[nH]c(CN2CC[C@H](O)C2)c2c3c(c(-c4ccncc4)sc13)OCCC2` [Example 10, (S)-5-((3-hydroxypyrrolidin-1-yl)methyl)-1-(pyridin-4-yl)-4,6,7,8-tetrahydro-3H-9-oxa-2-thia-4-azabenzo[cd]azulen-3-one] came in with a half-inhibitory concentration (IC50) of 1 to 10 nM.

For `CC(NC1CCC1)c1[nH]c(=O)c2sc(-c3cn[nH]c3)c3c2c1CCCO3` (stereo not shown) [Example 34], the concentration for half-maximal inhibition (IC50) is < 1 nM.

As to `O=C1CCCN1Cc1[nH]c(=O)c2sc(-c3cn[nH]c3)c3c2c1CCCO3` [Example 41, 5-((2-oxopyrrolidin-1-yl)methyl)-1-(1H-pyrazol-4-yl)-4,6,7,8-tetrahydro-3H-9-oxa-2-thia-4-azabenzo[cd]azulen-3-one], the IC50 was < 1 nM.

For `C[C@@H]1CCN1Cc1[nH]c(=O)c2sc(-c3cn[nH]c3)c3c2c1C[C@H](C)O3` (single isomer, unassigned) [Example 84], the half-maximal inhibitory concentration (IC50) was < 1 nM.

Regarding `CC[C@](C)(O)c1[nH]c(=O)c2sc(-c3ccncc3)c3c2c1CCCO3` (single isomer, unassigned) [Example 71], the IC50 was < 1 nM.

For the compound `O=c1[nH]c(Cn2cccn2)c2c3c(c(-c4ccncn4)sc13)OCCC2` [Example 19, 7-(pyrazol-1-ylmethyl)-2-pyrimidin-4-yl-12-oxa-3-thia-6-azatricyclo[6.4.1.0^4,13]trideca-1,4(13),7-trien-5-one], the IC50 is < 1 nM.

Take `O=c1[nH]c(CN2CC(O)C2)c2c3c(c(-c4cn[nH]c4)sc13)OCCC2` [Example 78, 7-[(3-hydroxyazetidin-1-yl)methyl]-2-(1H-pyrazol-4-yl)-12-oxa-3-thia-6-azatricyclo [6.4.1.0^4,13]trideca-1,4(13),7-trien-5-one]: the IC50 is < 1 nM.

As for `C[C@@H](O)c1[nH]c(=O)c2sc(-c3cn[nH]c3)c3c2c1CCCO3` (single isomer, unassigned) [Example 33], the IC50 was < 1 nM.

`NCc1[nH]c(=O)c2sc(-c3ccncc3)c3c2c1CCCO3` [Example 15, 5-(aminomethyl)-1-(pyridin-4-yl)-4,6,7,8-tetrahydro-3H-9-oxa-2-thia-4-azabenzo[cd]azulen-3-one;hydrochloride] registered an IC50 of 1 to 10 nM.

On to `C[C@@H]1Cc2c(CN3CCC(F)(F)C3)[nH]c(=O)c3sc(-c4cn[nH]c4)c(c23)O1` (single isomer, unassigned) [Example 65], for which the half-inhibitory concentration (IC50) is < 1 nM.

As for `O=c1[nH]c(CN2CC[C@H](O)C2)c2c3c(c(-c4cn[nH]c4)sc13)OCCC2` [Example 11, (S)-5-((3-hydroxypyrrolidin-1-yl)methyl)-1-(1H-pyrazol-4-yl)-4,6,7,8-tetrahydro-3H-9-oxa-2-thia-4-azabenzo[cd]azulen-3-one], the IC50 was < 1 nM.

For `C[C@H]1Cc2c(CN3CCC(F)(F)C3)[nH]c(=O)c3sc(-c4cn[nH]c4)c(c23)O1` (single isomer, unassigned) [Example 66], the IC50 was < 1 nM.

`CC(C)(O)c1[nH]c(=O)c2sc(-c3ccncc3)c3c2c1CCCO3` [Example 29, 5-(2-hydroxypropan-2-yl)-1-(pyridin-4-yl)-4,6,7,8-tetrahydro-3H-9-oxa-2-thia-4-azabenzo[cd]azulen-3-one]: the IC50 is < 1 nM.

Turning to `COC[C@@H](OC)c1[nH]c(=O)c2sc(-c3cn[nH]c3)c3c2c1CCCO3` (single isomer, unassigned) [Example 39], the IC50 was < 1 nM.

Consider `O=c1[nH]c(CN2CCCCC2)c2c3c(c(-c4cn[nH]c4)sc13)OCCC2` [Example 23, 5-(piperidin-1-ylmethyl)-1-(1H-pyrazol-4-yl)-4,6,7,8-tetrahydro-3H-9-oxa-2-thia-4-azabenzo[cd]azulen-3-one], for which the half-inhibitory concentration (IC50) was < 1 nM.

`O=c1[nH]c(Cn2ccnc2)c2c3c(c(-c4cn[nH]c4)sc13)OCCC2` [Example 22, 7-(imidazol-1-ylmethyl)-2-(1H-pyrazol-4-yl)-12-oxa-3-thia-6-azatricyclo[6.4.1.0^4,13]trideca-1,4(13),7-trien-5-one]: the half-maximal inhibitory concentration (IC50) was < 1 nM.

`C[C@H]1Cc2c(CN3CC[C@@H]3C)[nH]c(=O)c3sc(-c4cn[nH]c4)c(c23)O1` (single isomer, unassigned) [Example 83]: the IC50 is < 1 nM.

Compound `Cc1[nH]c(=O)c2sc(-c3cn[nH]c3)c3c2c1CCO3` [Example 3, 6-methyl-2-(1H-pyrazol-4-yl)-5,7-dihydro-3-oxa-1-thia-7-azaacenaphthylen-8(4H)-one] had a 50% inhibitory concentration (IC50) of 1 to 10 nM.

Turning to `C[C@H](O)c1[nH]c(=O)c2sc(-c3cn[nH]c3)c3c2c1CCCO3` (single isomer, unassigned) [Example 32], the IC50 was < 1 nM.

As for `O=c1[nH]c(CN2CCC(F)(F)C2)c2c3c(c(-c4cn[nH]c4)sc13)OCCC2` [Example 25, 7-[(3,3-difluoropyrrolidin-1-yl)methyl]-2-(1H-pyrazol-4-yl)-12-oxa-13-thia-6-azatricyclo[6.4.1.0^4,13]trideca-1,4(13),7-trien-5-one], the IC50 is < 1 nM.

On to `C[C@@H]1Cc2c(CN3CC(O)C3)[nH]c(=O)c3sc(-c4cn[nH]c4)c(c23)O1` (single isomer, unassigned) [Example 80], for which the 50% inhibitory concentration (IC50) was < 1 nM.

For `COC(=O)Cc1[nH]c(=O)c2sc(-c3cn[nH]c3)c3c2c1CCCO3` [Example 76, methyl 2-(3-oxo-1-(1H-pyrazol-4-yl)-4,6,7,8-tetrahydro-3H-9-oxa-2-thia-4-azabenzo[cd]azulen-5-yl)acetate], the 50% inhibitory concentration (IC50) was < 1 nM.
